In article PMC12548419 (Journal of Virology, 2025):
Values joined by “and” are separate entries in the source; they are usually repeats but may differ in a detail not shown here. Identical values can stand only once. Like-named read-outs stand apart in the source and are kept apart here.

Tests used:
SFTSV [1] = test: microbe, parasite or virus in culture; type: cell-based; settings: for EC50: Severe fever with thrombocytopenia syndrome virus
LCMV [2] = test: microbe, parasite or virus in culture; type: cell-based, lymphocytic choriomeningitis virus (strain Armstrong); settings: for EC50: Mammarenavirus choriomeningitidis
in vivo [3] = settings: Sprague-Dawley, rat, po, 10 mg/kg
in vivo [4] = settings: cynomolgus monkey, po, 5 mg/kg
SFTSV [5] = tested on: SFTSV; set-up: species or system A129 mice; settings: mouse, in vivo
LCMV [6] = tested on: LCMV; set-up: species or system C57BL/6-Prf1^tm1Sdz/J mice; settings: mouse, in vivo
SFTSV [7] = type: cell-based, severe fever with thrombocytopenia syndrome virus
LCMV [8] = type: cell-based, lymphocytic choriomeningitis virus
[9] = Sprague-Dawley, rat, in vivo, po, 21 mg/kg
[10] = cynomolgus monkey, in vivo, po, 10.7 mg/kg
[11] = A549, 48 h, read-out: EC50 (μM) mean ± sd SFTSV A549
[12] = Huh-7, 48 h, read-out: EC50 (μM) mean ± sd SFTSV Huh-7
[13] = Vero, 48 h, read-out: EC50 (μM) mean ± sd SFTSV Vero
[14] = read-out: EC50 range for SFTSV over all cell lines evaluated
[15] = A549, 48 h, read-out: EC50 (μM) mean ± sd LCMV A549
[16] = BHK-21, 48 h, read-out: EC50 (μM) mean ± sd LCMV BHK-21
[17] = Vero, 48 h, read-out: EC50 (μM) mean ± sd LCMV Vero
[18] = read-out: EC50 range for LCMV over all cell lines evaluated

O=c1ccn([C@@H]2O[C@](F)(CO)[C@@H](O)[C@H]2O)c(=O)[nH]1 [4′-FlU, 4′-Fluorouridine]
SI values SFTSV A549 (SFTSV [1]): > 210.67
SI values SFTSV Huh-7 (SFTSV [1]): > 214.23
SI values SFTSV Vero (SFTSV [1]): > 245.98
EC50 (SFTSV [1]; [11]): 2.37 ± 0.16 µM
EC50 (SFTSV [1]; [12]): 2.33 ± 0.51 µM
EC50 (SFTSV [1]; [13]): 2.03 ± 0.82 µM
EC50 (SFTSV [1]; [14]): 2.03 to 2.37 µM
SI values LCMV A549 (LCMV [2]): > 4826.57
SI values LCMV BHK-21 (LCMV [2]): > 3389.68
SI values LCMV Vero (LCMV [2]): > 12697.20
EC50 (LCMV [2]; [15]): 0.1 ± 0.01 µM
EC50 (LCMV [2]; [16]): 0.15 ± 0.05 µM
EC50 (LCMV [2]; [17]): 0.04 ± 0.01 µM
EC50 (LCMV [2]; [18]): 0.04 to 0.15 µM
AUC0-t (in vivo [3]): 7280 ng·h/mL
Cmax (in vivo [3]): 1370 ng/mL
half-life (in vivo [3]): 3.39 ± 1.41 h
AUC0-t (in vivo [4]): 10700 ng·h/mL
Cmax (in vivo [4]): 1500 ng/mL
half-life (in vivo [4]): 6.82 ± 0.46 h
CC50 (in vitro): > 500 µM

NC(=O)c1nc(F)c[nH]c1=O [T-705, favipiravir]
SI values SFTSV A549 (SFTSV [1]): > 1.79
SI values SFTSV Huh-7 (SFTSV [1]): > 160.32
SI values SFTSV Vero (SFTSV [1]): > 24.23
EC50 (SFTSV [1]; [11]): 280 µM
EC50 (SFTSV [1]; [12]): 3.12 µM
EC50 (SFTSV [1]; [13]): 20.6 µM
SI values LCMV A549 (LCMV [2]): > 7.36
SI values LCMV Vero (LCMV [2]): > 5.64
EC50 (LCMV [2]; [15]): 68 µM
EC50 (LCMV [2]; [17]): 88.6 µM
leukopenia, lymphocytopenia and reduction in platelet count (hematological parameters) (SFTSV [5]): relieved
lung pathology scores (SFTSV [5]): significantly lower pathology scores
spleen histopathology scores (SFTSV [5]): substantially reduced
splenomegaly (spleen-to-body weight ratio) (SFTSV [5]): significantly ameliorated
virus load in the liver, spleen, lung, and kidney (qRT-PCR and immunoplaque assays) (SFTSV [5]): significant reductions
infectious viral titers in the spleen (immunoplaque assays) (SFTSV [5]; 300 mg/kg): marked decreases
plasma levels of IFN-γ, TNF-α, IL-1β and IL-6 (SFTSV [5]; 300 mg/kg): significantly reduced
viral RNA copies in the spleen (qRT-PCR) (SFTSV [5]; 300 mg/kg): no statistically significant reduction
body weight (SFTSV [5]; po, 300 mg/kg): slight initial weight loss followed by weight recovery at 5 days post-infection
survival (SFTSV [5]; po, 300 mg/kg): survived
body weight (LCMV [6]): parallel body weight with that of the vehicle-treated group
spleen damage (spleen size, pathology score, H&E staining) (LCMV [6]): marked pathological lesions
viral RNA copies in the liver, spleen, lung, and kidney (qRT-PCR) (LCMV [6]): no reduction in the number of viral RNA copies was observed except in the lungs
viral titer in the liver, spleen, lung, and kidney (immunoplaque assay) (LCMV [6]): reduced the viral titer in the tissues
plasma IFN-γ and granulocyte colony-stimulating factor (LCMV [6]; 300 mg/kg): no significant effect
survival (LCMV [6]; po, 300 mg/kg): no survivors remaining by the end of the study
CC50 (in vitro): > 500 µM

CC(=O)OC[C@@]1(F)O[C@@H](n2ccc(=O)n(COC(=O)c3cccnc3)c2=O)[C@H](OC(C)=O)[C@@H]1OC(C)=O [VV251]
SI values SFTSV A549 (SFTSV [1]): > 96.94
SI values SFTSV Vero (SFTSV [1]): > 168.75
EC50 (SFTSV [1]; [11]): 5.16 µM
EC50 (SFTSV [1]; [12]): 0.65 µM
EC50 (SFTSV [1]; [13]): 2.96 µM
EC50 (SFTSV [1]; [14]): 0.65 to 5.16 µM
SI values LCMV A549 (LCMV [2]): > 6559.96
SI values LCMV BHK-21 (LCMV [2]): > 3177.56
SI values LCMV Vero (LCMV [2]): > 3628.85
fold lower EC50 than T-705 against LCMV (LCMV [2]): 849.6 fold and 632.9 fold
EC50 (LCMV [2]; [15]): 0.08 µM
EC50 (LCMV [2]; [16]): 0.16 ± 0.05 µM
EC50 (LCMV [2]; [17]): 0.14 µM
EC50 (LCMV [2]; [18]): 0.08 to 0.16 µM
antiviral effect on addition of exogenous natural nucleosides (SFTSV [7]): competitively reversed by supplementation with exogenous uridine and cytidine
antiviral effect on addition of exogenous natural nucleosides (LCMV [8]): competitively reversed by supplementation with exogenous uridine and cytidine
leukopenia, lymphocytopenia and reduction in platelet count (hematological parameters) (SFTSV [5]): relieved
lung pathology scores (SFTSV [5]): significantly lower pathology scores
plasma levels of IFN-γ, TNF-α, IL-1β and IL-6 (SFTSV [5]): significantly reduced
spleen histopathology scores (SFTSV [5]): substantially reduced
splenomegaly (spleen-to-body weight ratio) (SFTSV [5]): significantly ameliorated
virus load in the liver, spleen, lung, and kidney (qRT-PCR and immunoplaque assays) (SFTSV [5]): significant reductions
body weight (SFTSV [5]; po, 1 mg/kg): significant reduction in body weight
survival (SFTSV [5]; po, 1 mg/kg): only one mouse surviving until the end of the study
mice that died (SFTSV [5]; po, 5 mg/kg): one
body weight (SFTSV [5]; po, 10 mg/kg): remained stable
body weight (LCMV [6]): remained stable
hematological parameters (white blood cell, platelet, lymphocyte count) (LCMV [6]): ameliorated viremia induced by LCMV infection
number of viral RNA copies relative to the vehicle group (LCMV [6]): more than one order of magnitude lower
plasma IFN-γ and granulocyte colony-stimulating factor (LCMV [6]): statistically significant reduction
spleen damage (spleen size, pathology score, H&E staining) (LCMV [6]): ameliorated spleen damage efficiently
viral RNA copies in the liver, spleen, lung, and kidney (qRT-PCR) (LCMV [6]): significantly decreased
viral titer in the liver, spleen, lung, and kidney (immunoplaque assay) (LCMV [6]): significantly decreased
AUC0-t [9]: 9,714 ng·h/mL
Cmax [9]: 1,598 ng/mL
T1/2 [9]: 6.34 ± 0.75 h
AUC0-t [10]: 14,922 ng·h/mL
Cmax [10]: 2,358 ng/mL
T1/2 [10]: 5.45 ± 0.82 h
CC50 (in vitro): > 500 µM
